Usually AUC stands for the area under the concentration-time curve, a measure of exposure. Usually MRT stands for a mean duration of stay, worked out from the concentration-time curve. Broadly, the IC50 is the concentration that gives 50% inhibition.

Series [1] is described as follows: Pharmacokinetics assay in rats after intragastrical administration. The settings on record: both sexes, Sprague-Dawley, rat, plasma, po, SD rats, 2 mg/kg; for Vd/F: read-out: Apparent distribution volume Vz/F; for AUC: read-out: Area under curve AUC; for CL/F: read-out: Clearance CLz/F; for half-life: read-out: Half-life T1/2 (converted); for Cmax: read-out: Plasma concentration Cmax; for MRT: read-out: Residence time MRT. It is filed as in vivo. Here is the method: Rats were used as test animals. The drug concentration in plasma at different time points was determined by LC/MS/MS method after intragastrical administration of the compounds of Examples 1-1, 1-2, 2-1, 3-1, the compound with retention time of 6.631 minutes among Examples 9-1 and 9-2, and the compounds of Examples 33 and 39-1 to rats. The pharmacokinetic behavior of the compounds of the present invention was studied and evaluated in rats.
Compounds of Examples 1-1, 1-2, 2-1, 3-1, compound with retention time of 6.631 minutes among Examples 9-1 and 9-2, and compounds of Examples 33 and 39-1.
Twenty-eight healthy adult Sprague-Dawley (SD) rats (half male and half female) were purchased from SINO-BRITISH SIPPR/BK LAB. ANIMAL LTD., CO, with Certificate No.: SCXK (Shanghai) 2008-0016, and equally divided into 7 groups (4 rats per group).
A certain amount of the test compound was weighed, and added with 5% by volume of DMSO, 5% by volume of Tween 80, and 90% by volume of physiological saline were added to prepare a 0.2 mg/mL colorless, clear and transparent solution.
After an overnight fast, SD rats were administered intragastrically the test compounds at an administration dosage of 2.0 mg/kg and an administration volume of 10.0 mL/kg.
The rats were intragastrically administered the compounds of Examples 1-1, 1-2, 2-1, 3-1, the compound with retention time of 6.631 minutes among Examples 9-1 and 9-2, and the compounds of Examples 33 and 39-1.0.2 mL of blood was taken from the orbital sinus before administration and at 0.5, 1.0, 2.0, 4.0, 6.0, 8.0, 11.0 and 24.0 hours after administration. The samples were stored in heparinized tubes, and centrifuged for 10 minutes at 4° C. at 3,500 rpm to separate the blood plasma. The plasma samples were stored at −20° C. The rats were fed 2 hours after administration.
The content of the test compounds in the plasma of rats after intragastrical administration of the test compounds at different concentrations was determined: 25 μL of rat plasma at each time after administration was taken, added with 50 μL (100 ng/mL) of the internal standard solution of camptothecin and 175 μL of acetonitrile, shaken vertically for 5 minutes, and centrifuged for 10 minutes (4000 rpm). 3.0 μL of the supernatant was taken from the plasma samples for LC/MS/MS analysis.

The next series has as its target TGFβRI kinase ALK5 (Homo sapiens (Human), UniProt P36897). The series can be described thus: Inhibition of TGFβRI kinase ALK5 activity (TGFβRI kinase assay kit, ADP-Glo). The format is biochemical. As to conditions: ATP 50 μM; read-out: IC50 of inhibition effect on TGFβRI kinase ALK5 activity. Put shortly: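 Kinase reaction: 2 ng/μL enzyme in Tris pH 7.5, MgCl2, BSA buffer with 50 μM ATP and 0.2 μg/μL substrate peptide, 2.5 h at 27 °C. ADP formation read by ADP-Glo luminescence over 3-fold compound dilutions; IC50 calculated from signal versus concentration.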
Background: ADP-Glo turns the ADP formed in a reaction into a luminescent signal.

Series [2] concerns Smad signaling pathway of TGFβRI. Nature of the series: Inhibition of Smad signaling pathway of TGFβRI (3TP-lux luciferase reporter in HepG2 cell). The settings on record: Homo sapiens; HepG2 cell, 3TP-lux plasmid, 18 hours; read-out: IC50 on the inhibition of Smad signaling pathway of TGFβRI. It is filed as cell-based. (In general: A reporter such as luciferase makes a cellular process visible.)

TGFβRI kinase ALK5, sequence (P36897 34-503): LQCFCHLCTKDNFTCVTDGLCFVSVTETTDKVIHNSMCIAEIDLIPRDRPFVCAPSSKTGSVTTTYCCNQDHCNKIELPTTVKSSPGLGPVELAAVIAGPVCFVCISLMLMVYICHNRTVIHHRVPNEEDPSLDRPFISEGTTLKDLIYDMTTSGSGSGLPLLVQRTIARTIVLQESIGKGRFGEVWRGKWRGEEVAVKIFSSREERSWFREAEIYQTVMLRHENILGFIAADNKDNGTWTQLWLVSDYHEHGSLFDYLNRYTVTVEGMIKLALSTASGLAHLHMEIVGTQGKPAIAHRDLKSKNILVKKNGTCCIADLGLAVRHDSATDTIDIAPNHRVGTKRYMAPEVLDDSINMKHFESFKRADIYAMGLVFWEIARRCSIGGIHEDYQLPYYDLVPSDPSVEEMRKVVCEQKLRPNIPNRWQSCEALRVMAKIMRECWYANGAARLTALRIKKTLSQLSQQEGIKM

With `Cc1cccc(-c2nc3n(c2-c2ccc4nccc(C(N)=O)c4c2)[C@H]2CC[C@@H]3C2)n1` [Example 1-1, 6-((5S,8R)-2-(6-Methylpyridin-2-yl)-5,6,7,8-tetrahydro-5,8-methanoimidazo[1,2-a]pyridin-3-yl)quinoline-4-carboxamide], in series [1], the Vd/F was 23.5 ± 19.4 L/kg, the AUC was determined as 637 ± 355 ng·h/mL, the CL/F was determined as 68.6 ± 39.2 mL/min/kg and the half-life was 3.42 ± 1.29 h. Moreover, in series [1], the Cmax amounted to 208 ± 61 ng/mL and the MRT is 3.88 ± 0.26 h. The IC50 at TGFβRI kinase ALK5 was determined as 0.009 µM. Further, the half-inhibitory concentration (IC50) in series [2] came out at 0.036 µM.
In the case of `Cc1cccc(-c2nc3n(c2-c2ccc4nnc(C(N)=O)n4c2)[C@H]2CC[C@@H]3C2)n1` [Example 2-1, 6-((5S,8R)-2-(6-Methylpyridin-2-yl)-5,6,7,8-tetrahydro-5,8-methanoimidazo[1,2-a]pyridin-3-yl)[1,2,4]triazolo[4,3-a]pyridine-3-carboxamide], in series [1], the Vd/F stood at 7.8 ± 1.33 L/kg, the AUC came out at 664 ± 93 ng·h/mL, the CL/F is 50.8 ± 7.2 mL/min/kg and the half-life is 1.77 ± 0.2 h. In series [1], the Cmax was determined as 351 ± 52 ng/mL and the mean residence time (MRT) is 2.3 ± 0.37 h. For the same compound, at TGFβRI kinase ALK5, the IC50 was determined as 0.003 µM. For the same compound, the IC50 in series [2] worked out at 0.021 µM.
`Cc1cccc(-c2nc3n(c2-c2ccnc(-c4ccc(S(C)(=O)=O)cc4)c2)[C@H]2CC[C@@H]3C2)n1` [Example 3-1, (5S,8R)-2-(6-Methylpyridin-2-yl)-3-(2-(4-(methylsulfonyl)phenyl)pyridin-4-yl)-5,6,7,8-tetrahydro-5,8-methanoimidazo[1,2-a]pyridine]: in series [1], the Vd/F is 3.3 ± 1.1 L/kg, the AUC worked out at 800 ± 208 ng·h/mL, the CL/F was 43.4 ± 10.4 mL/min/kg and the half-life was 0.868 ± 0.1 h. In series [1], the Cmax is 502 ± 128 ng/mL and the MRT was found to be 1.43 ± 0.06 h. Also, the IC50 at TGFβRI kinase ALK5 came to 0.004 µM. Also, the IC50 in series [2] turned out to be 0.019 µM.
As to `NC(=O)c1ccnc2ccc(-c3c(-c4ccc(F)cn4)nc4n3[C@H]3CC[C@@H]4C3)cc12` [Example 39-1, 6-((5S,8R)-2-(5-Fluoropyridin-2-yl)-5,6,7,8-tetrahydro-5,8-methanoimidazo[1,2-a]pyridin-3-yl)quinoline-4-carboxamide], in series [1], the Vd/F came to 18.3 ± 17.4 L/kg, the AUC was determined as 689 ± 609 ng·h/mL, the CL/F stood at 121 ± 116 mL/min/kg and the half-life was 2.06 ± 0.86 h. For the same compound, in series [1], the Cmax amounted to 317 ± 269 ng/mL and the MRT worked out at 2.44 ± 1.16 h. In addition, the IC50 at TGFβRI kinase ALK5 was found to be 0.026 µM. In series [2], the IC50 was determined as 0.024 µM.
